Data taken from ChEMBL document CHEMBL2046425, “Neamphamide B, new cyclic depsipeptide, as an anti-dormant mycobacterial substance from a Japanese marine sponge of Neamphius sp” (2012).
≈ marks a conversion by molar mass, not a printed value.

How the values were obtained:
[1] = system: Mycobacterium tuberculosis; experiment: Antimicrobial activity against Mycobacterium bovis BCG under dormancy-inducing hypoxic condition for 14 days by MTT assay; format: functional; details: variant bovis BCG, 336 h
[2] = system: Mycobacterium tuberculosis; experiment: Antimicrobial activity against Mycobacterium bovis BCG under aerobic condition for 7 days by MTT assay; format: functional; details: variant bovis BCG, 168 h

SMILES: COC(c1ccc(O)cc1)C1NC(=O)[C@H](CCC(N)=O)N(C)C(=O)[C@H](CC(C)C)NC(=O)[C@@H](CCCNC(=N)N)NC(=O)[C@@H]([C@@H](C)O)NC(=O)[C@H](NC(=O)C(NC(=O)[C@H](O)[C@H](O)[C@H](CCCNC(=N)N)NC(=O)[C@@H](CC(N)=O)NC(=O)C(C)C(O)C(C)CC(C)C)C(C)C(C)C(N)=O)[C@@H](C)OC(=O)[C@@H]2CCCCN2C1=O (some centres not stated) [NEAMPHAMIDE B]
- MIC [1]: 12.5 µg/mL (≈ 7.94 µM)
- MIC [2]: 6.25 µg/mL (≈ 3.97 µM)
